Source: patent publication US7851637B2, “Compounds and methods for inhibiting the interaction of BCL proteins with binding partners” (Infinity Pharmaceuticals, Inc., priority 2004, dated 2010)
Like-named read-outs stand apart in the source and are kept apart here.

Experiments:
[1] = tested on: RL Human Follicular Lymphoma Cell Line; experiment: Alamar blue cytotoxicity assay in RL cells; assay type: cell-based; conditions: 72 h incubation, read-out: Bcl RL Alamar Blue IC50
Method: When RL-cells are exposed to isoxazolidine compounds of the present invention, the inhibitors show a dose-dependent cell-killing in the Alamar blue cytoxicity assay with IC50 values of from about 100 μM to about 1 μM (See Examples). When Panc1 cells are exposed to the isoxazolidine compounds of the present invention in combination with camptothecin, the inhibitors show a synergistic dose-dependent cell killing in the propidium iodide exclusion cell survival assay with IC50 values of from about 100 μM to about 1 μM (See Examples).
• 1) Using 96 well plates, compounds were serially diluted in DMSO from 9 mM to 4 uM • 2) Assay plates were prepared by diluting samples 310 fold into 150 ul of medium containing 30,000 cells/well resulting in a final DMSO concentration of 0.3% and a concentration range from 29 uM to 0.013 uM for each compound. • 3) Plates were incubated at 37 C and 5% CO2 for 72 h • 4) After 72 h, Alamar blue reagent was added to each well and plates read according to manufacturer's instructions
In vitro cytotoxicity data for RL cells is presented below for various compounds of the invention.

Bcl-2 = Bcl-2 (Homo sapiens, UniProt P10415); experiment: Bcl-2 binding affinity analysis (fluorescence polarization binding assay)
Bcl-2, sequence (P10415 whole entry): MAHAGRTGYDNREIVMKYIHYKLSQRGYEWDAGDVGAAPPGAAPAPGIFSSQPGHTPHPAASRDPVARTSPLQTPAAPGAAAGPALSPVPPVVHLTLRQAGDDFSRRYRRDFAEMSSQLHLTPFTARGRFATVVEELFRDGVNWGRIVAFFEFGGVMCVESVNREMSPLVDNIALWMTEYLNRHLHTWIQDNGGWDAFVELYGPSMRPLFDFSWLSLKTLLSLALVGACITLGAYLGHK
In short: (§1)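 Quantitative binding by polarized-fluorescence detection; in vitro, no cells involved.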

Bcl-xL = Bcl-xL (Homo sapiens, UniProt Q07817); experiment: Bcl-xL binding affinity analysis (fluorescence polarization binding assay); parameters: scale not given here
Bcl-xL, sequence (Q07817 whole entry): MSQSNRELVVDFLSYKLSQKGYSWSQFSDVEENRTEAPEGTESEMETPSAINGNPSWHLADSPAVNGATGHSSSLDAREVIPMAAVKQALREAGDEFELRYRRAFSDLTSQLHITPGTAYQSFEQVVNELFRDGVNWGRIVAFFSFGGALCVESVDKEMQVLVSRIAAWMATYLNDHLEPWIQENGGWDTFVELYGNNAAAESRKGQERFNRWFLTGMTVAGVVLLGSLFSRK
In short: as §1

| SMILES | IC50 ([1]; Homo sapiens) | Ki (Bcl-2) | Bcl-XL binding affinity Ki (Bcl-xL) | IC50 [1] |
| --- | --- | --- | --- | --- |
| CC(=O)Oc1cccc(CN(CCN(C)C)Cc2cccc(CN3OC(CO)C(C(C)O)C3C(=O)NC3CC4CC(C3C)C4(C)C)c2)c1 (stereo not drawn) [Compound 405] | 2000 to 5000 nM | < 800 nM | ♯ | – |
| C[C@@H]1[C@@H](NC(=O)[C@@H]2C([C@H](C)O)[C@H](CO)ON2Cc2cccc(CN(Cc3ccccc3)[C@@H](CCc3ccccc3)CN(C)C)c2)C[C@H]2C[C@@H]1C2(C)C (stereo partly drawn) [Compound 420] | < 2000 nM | < 800 nM | ♯ | – |
| CC(O)C1C(CO)ON(Cc2cccc(CN(Cc3ccccc3)C3CCN(C)C3)c2)C1C(=O)NC1CC2CC(C1C)C2(C)C (stereo not drawn) [Compound 429] | 2000 to 5000 nM | < 800 nM | ♯ | – |
| C[C@@H]1[C@@H](NC(=O)[C@@H]2C([C@H](C)O)[C@H](CO)ON2Cc2cccc(CN(Cc3ccccc3)[C@@H]3CCN(C)C3)c2)C[C@H]2C[C@@H]1C2(C)C (stereo partly drawn) [Compound 432] | < 2000 nM | < 800 nM | ♯ | – |
| CC(O)C1C(CO)ON(Cc2cccc(CN(Cc3ccccc3)C(CC3CCCCC3)CN(C)C)c2)C1C(=O)NC1CC2CC(C1C)C2(C)C (stereo not drawn) [Compound 437] | > 5000 nM | < 800 nM | ♯ | – |
| CC(O)C1C(CO)ON(Cc2cccc(CN3CCN(C)CC3)c2)C1C(=O)NC1CC2CC(C1C)C2(C)C (stereo not drawn) [Compound 447] | > 5000 nM | < 800 nM | ♯ | – |
| C[C@@H]1[C@@H](NC(=O)[C@@H]2C([C@H](C)O)[C@H](CO)ON2Cc2cccc(CN3[C@@H](CN(C)C)CC[C@H]3c3ccccc3)c2)C[C@H]2C[C@@H]1C2(C)C (stereo partly drawn) [Compound 448] | 2000 to 5000 nM | < 800 nM | ♯ | – |
| CC(O)C1C(CO)ON(Cc2cccc(CN3CCN(C)C(c4ccccc4)C3)c2)C1C(=O)NC1CC2CC(C1C)C2(C)C (stereo not drawn) [Compound 456] | > 5000 nM | < 800 nM | ♯ | – |
| CC(O)C1C(CO)ON(Cc2cccc(CN3c4ccccc4CC3CN(C)C)c2)C1C(=O)NC1CC2CC(C1C)C2(C)C (stereo not drawn) [Compound 465] | > 5000 nM | < 800 nM | ♯ | – |
| CC(O)C1C(CO)ON(Cc2cccc(CN3C(CN(C)C)CC4CCCCC43)c2)C1C(=O)NC1CC2CC(C1C)C2(C)C (stereo not drawn) [Compound 466] | > 5000 nM | < 800 nM | ♯ | – |
| CC(O)C1C(CO)ON(Cc2cccc(CN3CCN(C)CC3c3ccccc3)c2)C1C(=O)NC1CC2CC(C1C)C2(C)C (stereo not drawn) [Compound 473] | > 5000 nM | < 800 nM | ♯ | – |
| CC(O)C1C(CO)ON(Cc2cccc(CNCC3CCCN3C(=O)OCc3ccccc3)c2)C1C(=O)NC1CC2CC(C1C)C2(C)C (stereo not drawn) [Compound 474] | 2000 to 5000 nM | < 800 nM | ♯ | – |
| COc1c(CN2O[C@@H](CO)[C@@H]([C@H](C)O)[C@H]2C(=O)N[C@H]2C[C@H]3C[C@@H]([C@@H]2C)C3(C)C)cccc1-c1cccc(C(=O)N[C@@H](Cc2ccccc2)CN(C)C)c1 [Compound 477] | < 2000 nM | < 800 nM | ♯ | – |
| COc1c(CN2O[C@@H](CO)[C@@H]([C@H](C)O)[C@H]2C(=O)N[C@H]2C[C@H]3C[C@@H]([C@@H]2C)C3(C)C)cccc1-c1cccc(C(=O)N[C@@H](CCc2ccccc2)CN(C)C)c1 [Compound 481] | 2000 to 5000 nM | < 800 nM | ♯ | – |
| COc1c(CN2O[C@@H](CO)[C@@H]([C@H](C)O)[C@H]2C(=O)N[C@H]2C[C@H]3C[C@@H]([C@@H]2C)C3(C)C)cccc1-c1cccc(C(=O)N[C@H](CCc2ccccc2)CN(C)C)c1 [Compound 482] | < 2000 nM | < 800 nM | ♯ | – |
| COc1c(CN2O[C@@H](CO)[C@@H]([C@H](C)O)[C@H]2C(=O)N[C@H]2C[C@H]3C[C@@H]([C@@H]2C)C3(C)C)cccc1-c1cccc(C(=O)N[C@H](CN(C)C)c2ccccc2)c1 [Compound 491] | 2000 to 5000 nM | < 800 nM | ♯ | – |
| CC(C)C(CN(C)C)NC(=O)c1cccc(CN2OC(CO)C(C(C)O)C2C(=O)NC2CC3CC(C2C)C3(C)C)c1 (stereo not drawn) [Compound 502] | > 5000 nM | < 800 nM | ♯ | – |
| CC(O)C1C(CO)ON(Cc2cccc(C(=O)NC(Cc3ccccc3)CN(C)C)c2)C1C(=O)NC1CC2CC(C1C)C2(C)C (stereo not drawn) [Compound 507] | > 5000 nM | < 800 nM | ♯ | – |
| CC(C)C[C@H](CN(C)C)NC(=O)Nc1cccc(CN2O[C@@H](CO)[C@@H]([C@H](C)O)[C@H]2C(=O)NC2C[C@H]3C[C@@H]([C@@H]2C)C3(C)C)c1 (stereo partly drawn) [Compound 562] | > 5000 nM | < 800 nM | ♯ | – |
| C[C@@H]1[C@@H](NC(=O)[C@@H]2[C@H]([C@H](C)O)[C@H](CO)ON2Cc2cccc(NC(=O)N[C@@H](Cc3ccccc3)CN(C)C)c2)C[C@H]2C[C@@H]1C2(C)C [Compound 570] | > 5000 nM | < 800 nM | ♯ | – |
| C[C@@H]1[C@@H](NC(=O)[C@@H]2[C@H]([C@H](C)O)[C@H](CO)ON2Cc2cccc(NC(=O)N[C@H](Cc3ccccc3)CN(C)C)c2)C[C@H]2C[C@@H]1C2(C)C [Compound 571] | > 5000 nM | < 800 nM | ♯ | – |
| CC(O)C1C(CO)ON(Cc2cccc(NC(=O)NC(CCc3ccccc3)CN(C)C)c2)C1C(=O)NC1CC2CC(C1C)C2(C)C (stereo not drawn) [Compound 572] | 2000 to 5000 nM | < 800 nM | ♯ | – |
| CC(O)C1C(CO)ON(Cc2cccc(NC(=O)NC(CCc3ccccc3)CN(C)C)c2)C1C(=O)NC1CC2CC(C1C)C2(C)C (stereo not drawn) [Compound 573] | – | < 800 nM | ♯ | 2000 to 5000 nM |
| C[C@@H]1[C@@H](NC(=O)[C@@H]2[C@H]([C@H](C)O)[C@H](CO)ON2Cc2cccc(NC(=O)N[C@H](CC3CCCCC3)CN(C)C)c2)C[C@H]2C[C@@H]1C2(C)C [Compound 574] | 2000 to 5000 nM | < 800 nM | ♯ | – |
| C[C@@H]1[C@@H](NC(=O)[C@@H]2[C@H]([C@H](C)O)[C@H](CO)ON2Cc2cccc(NC(=O)N(C)[C@@H](CC3CCCCC3)CN(C)C)c2)C[C@H]2C[C@@H]1C2(C)C [Compound 575] | 2000 to 5000 nM | < 800 nM | ♯ | – |
| C[C@@H]1[C@@H](NC(=O)[C@@H]2[C@H]([C@H](C)O)[C@H](CO)ON2Cc2cccc(NC(=O)N(C)[C@H](CC3CCCCC3)CN(C)C)c2)C[C@H]2C[C@@H]1C2(C)C [Compound 576] | 2000 to 5000 nM | < 800 nM | ♯ | – |
| C[C@@H]1[C@@H](NC(=O)[C@@H]2[C@H]([C@H](C)O)[C@H](CO)ON2Cc2cccc(NC(=O)N[C@@H](CC3CCCCC3)CN(C)C)c2)C[C@H]2C[C@@H]1C2(C)C [Compound 577] | 2000 to 5000 nM | < 800 nM | ♯ | – |
| C[C@@H]1[C@@H](NC(=O)[C@@H]2[C@H]([C@H](C)O)[C@H](CO)ON2Cc2cccc(N(CCCN(C)C)Cc3ccccc3C(F)(F)F)c2)C[C@H]2C[C@@H]1C2(C)C [Compound 585] | 2000 to 5000 nM | < 800 nM | ♯ | – |
| C[C@@H]1[C@@H](NC(=O)[C@@H]2[C@H]([C@H](C)O)[C@H](CO)ON2Cc2cccc(N(CCCN(C)C)CC3CCCCC3)c2)C[C@H]2C[C@@H]1C2(C)C [Compound 586] | 2000 to 5000 nM | < 800 nM | ♯ | – |
